Consider two substances from PMC4872532, “Development of antithrombotic nanoconjugate blocking integrin α2β1-collagen interactions” (Scientific Reports, 2016).

Where no end group is shown, it is not given here.

Data set [1] can be described thus: UV-VIS quantification of immobilized LWWNSYY. Format: physicochemical. Particulars: UV-VIS absorption peak at 280 nm; B-PGMA NPs background subtracted. The source says: The chemical conjugation of LWWNSYY onto the surface of PGMA-ECH NPs was examined using fourier transform infrared spectra (FTIR) spectroscopy (Fig. 2). […] This indicates successful chemical conjugation of LWWNSYY onto the surface of PGMA-ECH NPs through the opening of epoxy group. UV-VIS spectra further confirmed formation of L-PGMA NPs (Fig. S1 in Supporting Information), with an absorption peak at 280 nm corresponding to the characteristic absorption of tryptophan residues in LWWNSYY. […] The formation of LWWNSYY clusters due to its high hydrophobicity was then expected to be inhibited.
UV-VIS spectra of L-PGMA NPs were obtained by Lambda 35 (Perkin Elmer, USA) UV-VIS spectrophotometer. Spectra were collected within a range of 200–600 nm. The nanoparticles without conjugated LWWNSYY were denoted as B-PGMA NPs. That is, the value of B-PGMA NPs with the same concentration was subtracted as background in analysis. Data were representative of three repeated experiments.

Data set [2] can be described thus: Particle size and zeta potential by dynamic light scattering. Format: physicochemical. Particulars: Zetasizer Nano, deionized water, 25 °C, mean ± S.D., N = 3. The method, then:
Particle size and zeta potential were measured by dynamic light scattering (DLS) in deionized water at room temperature, as shown in Table 1.
The samples were submitted to size or zeta analysis by injecting them into disposable DLS or zeta potential cuvettes at 25 °C. The results were reported as the average of three repeated experiments.

The subject of data set [3] is platelet adhesion on collagen peptide. Put plainly: Platelet solid-phase adhesion assay on collagen peptide. Format: cell-based, sheep. Particulars: for IC50, concentration required to inhibit half of the specific binding (platelet adhesion): collagen peptide coated 100 μg/mL, inhibitor in normal saline 1 h at 18 °C, washed, platelets 1 h at 18 °C, p-nitrophenyl phosphate read-out 405 nm, L-PGMA NPs concentration = conjugated LWWNSYY. The source says:
(§1) Glycidyl methacrylate (97%) and ethylene glycol dimethacrylate (97%) were purchased from Sigma-Aldrich (St. Louis, MO, USA). Dimethy sulfoxide (DMSO), epichlorohydrin (ECH), EG and sodium borohydride (NaBH4) were of analytical grade from Guangfu Fine Chemical Research Institute (Tianjin, China). The triple helix collagen peptide, with an amino acid sequence of (GPO)2GFOGER(GPO)3, was purchased as HPLC-purified powder with a purity of >95% from ChinaPeptides (Shanghai, China). LWWNSYY was obtained as lyophilized powder with a purity of >95% from GL Biochem (Shanghai, China). Sheep blood containing 0.4% sodium citrate (w/v) was purchased from Ruite Bio-tec (Guangzhou, China). Bovine serum albumin (BSA) was purchased from Sigma (St. Louis, MO, USA). ρ-nitrophenylphosphate (PNPP) was purchased from Aladdin Industrial Corporation (Shanghai, China) with a purity of 98%. Sodium chloride (NaCl), tris (hydroxymethyl) aminomethane (Tris) and other reagents were of analytical grade from Sangon Biotech Co., Ltd. (Shanghai, China).
Adhesion was determined colorimetrically, following the procedure reported previously. Anticoagulated sheep blood was obtained by the addition of 0.4% sodium citrate (w/v), allowing about five days for the transportation before the tests. Platelet-rich plasma (PRP) was obtained as the supernatant after centrifugation of the anticoagulated sheep blood at 180 g for 20 min at 4 °C. Then platelet was obtained as the precipitate after centrifugation of PRP at 1000 g for 10 min at 4 °C[12], which was suspended in adhesion buffer (TBS containing 0.1% BSA) to prepare platelet suspension buffer for further use. Microtiter HB 96-well plates (Costar, Corning Inc., USA) were coated with 100 μL collagen peptide (100 μg/mL) dissolved in 0.01 M acetic acid for 4 h at 18 °C. Reagents without adhesion were discarded, and the wells were washed by 200 μL TBS (50 mM Tris-HCl, 140 mM NaCl, 2 mM Mg^2+, pH 7.4) for three times. Then, wells were blocked for 1 h by 100 μL of TBS containing 50 mg/mL BSA. After three washes by 200 μL TBS, 100 μL LWWNSYY or L-PGMA NPs with different concentrations dissolved in normal saline was applied to each well and incubated at 18 °C for 1 h. 100 μL platelet suspension buffer were added to each well after three washes to remove non-reacted inhibitors, and plates were incubated at 18 °C for 1 h. Unbound platelets were then discarded, and the wells were washed as above. 150 μL lysis buffer (0.1 M citrate, pH 5.4, containing 0.1% Triton X-100 and 5 mM p-nitrophenyl phosphate) was added to each well. Reaction was terminated after 1 h by addition of 100 μL NaOH (3 M), and plates were read at 405 nm using an automated plate reader (ELX800, BioTek Instruments Inc., USA). […] The effect of binding to BSA or B-PGMA NPs was eliminated. According to the standard above, the absorption value was transformed to inhibition ratio. Data was presented as the mean ± S.D. from three independent experiments (n = 8). Dose-response inhibition ratio curves were fitted using the Hill equation[48][49]. The concentration of LWWNSYY or L-PGMA NPs required to inhibit half of the specific binding, IC50, and the maximum inhibition ratio, IRmax, were calculated based on the Hill equation[50].

Data set [4] concerns the target Triple Helical Collagen Peptide (GPO)2GFOGER(GPO)3. Put plainly: Isothermal titration calorimetry, binding to triple helical collagen peptide. The note with it: L-PGMA in deionized water containing normal saline concentration, 600 μM collagen peptide, 10 °C, mean ± S.D., N = 3. How it is done:
ITC experiments were performed to investigate the thermodynamic binding characteristics of L-PGMA NPs on the triple helical collagen peptide (Fig. 4A). The triple helix collagen peptide containing GFOGER recognition sequence was titrated with L-PGMA NPs. The data of LWWNSYY was also examined and used as control.
as §1
The binding between collagen peptide and LWWNSYY in normal saline or normal saline containing 25% (v/v) EG was investigated following the procedure reported previously, the concentration of collagen peptide in the cell was 80 μM, while the concentration of LWWNSYY was 1.0 mM. To investigate the binding between collagen peptide and L-PGMA NPs in normal saline, the concentration of L-PGMA NPs in the cell was 48 μM (in full text, the concentration of L-PGMA NPs represents the concentration of conjugated LWWNSYY on the surface of L-PGMA NPs in solution), while the concentration of collagen peptide was 600 μM. All samples were treated by 20 min degassing prior to the examination. Isothermal calorimetric titrations were performed in a titration mode with a 1.425 mL sample cell, using a VP isothermal titration calorimeter (MicroCal, Northampton, MA). 8 μL LWWNSYY was injected over 16 s for 30 times, with a spacing time of 350 s between injections. The reference power was set to 20 μcal/s, and the stirring speed was 307 rpm. To reserve the active triple helical form of collagen peptide, the temperature in ITC cell was kept at 10 °C. […] Titration data were analyzed using MicroCal Origin (Version 7.0). […] Consequently, the integrated enthalpy was calculated from the single-site binding model. Thermodynamics parameters, including Kd, ΔH, TΔS, and Gibbs free energy (ΔG) were calculated.

Data set [5] has as its system carotid artery thrombus formation. The data set is described as follows: FeCl3-induced carotid artery thrombus formation. Format: in vivo, Wistar rats. Particulars: 0.625 mg/kg i.v., N = 5. An excerpt:
Adult SPF male Wistar rats weighing 180–220 g were purchased from HFK Bioscience Co. (Beijing, China), and housed in a standard temperature-, light-, and humidity-controlled animal enclosures at the institute of Radiation Medicine in Chinese Academy of Medical Sciences. All rats had free access to food and water, and were acclimated for at least 1 week. The Institute of Radiation Medicine Animal Care and Use Committee approved the protocols for the care and use of animals, and all animal procedures were carried out in accordance with the approved guidelines.
FeCl3-induced arterial injury in rats was performed following the procedure reported previously. Rats were randomly divided into 4 groups (N = 5) and fasted for 12 h before the surgery. They were anesthetized with 10% chloral hydrate (3 mL/kg, i.p.) and placed on a 37 °C warming pad throughout the experiment. The right carotid artery was exposed by blunt dissection with minimal blood loss, and a Doppler flow probe (Transonic T400, USA) was attached to the artery to monitor blood flow continuously. […] After 20 min, the filter paper was removed, and the vessel was washed with normal saline. The blood flow was monitored continuously for 30 min after injury. At the end of 30-minute period, thrombus size was evaluated by the weight. Immediately after the experiment, the rats were sacrificed by cervical dislocation while still under deep anesthesia. Data are expressed as mean ± S.D. Data were analyzed by one-way ANOVA, followed by Duncan’s post hoc test. Statistical significance was set at p < 0.05.

Another data set concerns ICR mice. The data set is described as follows: Toxicity assay of inhibitors. Format: in vivo. Particulars: for toxicity: i.v. 2.5 mg/kg, N = 4, 7 days. How it is done:
S4. Toxicity Assay of Inhibitors
Eight specific pathogen free (SPF) ICR mice weighing about 18-22 g (HFK Bioscience Co., Ltd., Beijing, China) were randomly divided into two groups (N=4, half males and half females), and then treated with LWWNSYY or L-PGMA NPs (i.v., 2.5mg/10ml/kg) to investigate their toxicity, respectively. After treatment, animals were maintained under standard conditions with food ad libitum and maintained in a 12 h/12 h light/dark cycle at room temperature. Behavior, mortality and any other clinical signs of mice were observed […]
1.Bullock, A. N. et al., Thermodynamic stability of wild-type and mutant p53 core domain. P. Natl Acad. Sci.

Triple Helical Collagen Peptide (GPO)2GFOGER(GPO)3, sequence (as listed by the source): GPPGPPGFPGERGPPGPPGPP

In general, Kd refers to the free concentration of one partner at which half of the binding sites on the other are occupied at equilibrium, for simple one-to-one binding. “LWWNSYY [L-PGMA NPs, LWWNSYY-PGMA nanoparticles conjugate; LWWNSYY immobilized to the surface of poly(glycidyl methacrylate) nanoparticles]”: the “immobilized LWWNSYY” value in data set [1] is on record as 3.2 ± 0.2 mg in 100 mg of PGMA NPs. In data set [2] (DLS), this substance registered a Hydrodynamic diameter of 106.6 ± 0.91 nm and a Polydispersity index of 0.06 ± 0.02. In addition, in data set [2], the Zeta potential is given as −32.9 ± 0.57 mV. Besides, in data set [3] (1–50 μg/mL LWWNSYY, 0.1–40 μg/mL L-PGMA NPs (conjugated LWWNSYY)), the “plateau of inhibition ratio curve, platelet adhesion” value is on record as 100%. Further, the “maximum inhibition ratio (IRmax) of platelet adhesion” value in data set [3] (Hill fit, 1–50 μg/mL LWWNSYY, 0.1–40 μg/mL L-PGMA NPs (conjugated LWWNSYY) in normal saline, 18 °C, mean ± S.D., N = 8) turned out to be 102.6 ± 3.4%. Also, the “IC50, concentration required to inhibit half of the specific binding (platelet adhesion)” value in data set [3] (Hill fit, mean ± S.D., N = 8) was 1.83 ± 0.29 µg/mL. For the same substance, in data set [3] (decreased to this fraction of free LWWNSYY IC50), the “IC50 relative to that of free LWWNSYY” value was 1/3. The Kd in data set [4] (48 μM L-PGMA NPs in cell (concentration of conjugated LWWNSYY), single-site binding model) came out at 3.45 ± 1.06 µM. Further, in data set [4] (48 μM L-PGMA NPs in cell), the TΔS is listed as 8.44 ± 0.37 kcal/mol, the ΔG is -7.09 ± 0.16 kcal/mol and the ΔH was found to be 1.35 ± 0.21 kcal/mol. In data set [5] (15 min before 12% FeCl3, 30 min after injury, mean ± S.D., control 7.41 ± 1.75 mg, LWWNSYY p < 0.01, L-PGMA NPs p < 0.001 compared to control, no significant difference between the two), this substance yielded a thrombus weight of 3.70 ± 0.45 mg. Also, the “occlusion at 30 min” value in data set [5] (15 min before 12% FeCl3) is recorded as “No occlusion was observed”. Besides, the “mean blood flow, relative to initial blood flow” value in data set [5] (15 min before 12% FeCl3, at end of 30-min period, p < 0.001 compared to control or LWWNSYY group) is “about 85%”. Moreover, the “reduction of thrombus weight compared to the control group” value in data set [5] (30 min after injury) was roughly 50%. For the same substance, the “reduction of thrombus weight compared to LWWNSYY group” value in data set [5] (30 min after injury, difference not significant) is given as roughly 15%. The “mean blood flow rate at all time points” value in data set [5] (compared to the control or LWWNSYY group) is “significantly higher”. For the same substance, in the data set with ICR mice (2.5mg/10ml/kg i.v., N = 4 (half males, half females), observed 7 days), the clinical signs entry was “no abnormal clinical signs”. Moreover, in the data set with ICR mice, the toxicity entry is on record as “little toxicity”.
With LWWNSYY [LWWNSYY], the “IC50, concentration required to inhibit half of the specific binding (platelet adhesion)” value in data set [3] (Hill fit, mean ± S.D., N = 8) came to 5.66 ± 1.13 µg/mL. For the same substance, the toxicity result in the data set on ICR mice is recorded as “little toxicity”.
